Counter-ions that a name gives are not always drawn.
Target: T1, HIV integrase (Human immunodeficiency virus type 1 group M subtype B, UniProt P12497, F1332H)
T1 construct: HIV integrase full length gene; made in house; host or cells: Escherichia coli BL21(DE3), plasmid pET21a-INH
Experiment: Determination of enzyme (HIV integrase) inhibitory activity
Assay type: biochemical
Conditions: recombinant HIV integrase (F185H), strand transfer ELISA, absorbance at 450 nm
Outline: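 Full-length integrase with F185H, expressed in E. coli and purified, was reacted for 60 min at 37 °C with compound and biotinylated donor DNA bound to streptavidin plates. Target DNA was added for 10 min, then anti-digoxigenin-peroxidase detection at A450; IC50 from % inhibition versus enzyme-free blank.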

Structure (SMILES)	IC50
O=C1c2c(O)c(=O)c(-c3nccs3)cn2CCN1CCCc1ccc(Cl)c(F)c1 [Example 313, 2-[3-(4-chloro-3-fluorophenyl)propyl]-9-hydroxy-7-(thiazol-2-yl)-3,4-dihydro-2H-pyrido[1,2-a]pyrazine-1,8-dione]	10 to 100 nM
O=C1c2c(O)c(=O)c(-c3nccs3)cn2CCN1CCCc1ccc(F)cc1 [Example 314, 2-[3-(4-fluorophenyl)propyl]-9-hydroxy-7-(thiazol-2-yl)-3,4-dihydro-2H-pyrido[1,2-a]pyrazine-1,8-dione]	10 to 100 nM
O=C1c2c(O)c(=O)c(-c3nccs3)cn2CCN1CCCc1cccc(F)c1 [Example 315, 2-[3-(3-fluorophenyl)propyl]-9-hydroxy-7-(thiazol-2-yl)-3,4-dihydro-2H-pyrido[1,2-a]pyrazine-1,8-dione]	10 to 100 nM
O=C1c2c(O)c(=O)c(-c3nccs3)cn2CCN1CCCc1ccccc1 [Example 316, 9-hydroxy-2-(3-phenylpropyl)-7-(thiazol-2-yl)-3,4-dihydro-2H-pyrido[1,2-a]pyrazine-1,8-dione hydrochloride]	10 to 100 nM
O=C1c2c(O)c(=O)c(-c3ccccn3)cn2CCN1Cc1cccc(Cl)c1F [Example 317, 2-(3-chloro-2-fluorobenzyl)-9-hydroxy-7-(pyridin-2-yl)-3,4-dihydro-2H-pyrido[1,2-a]pyrazine-1,8-dione hydrochloride]	10 to 100 nM
COCC(=O)Nc1cn2ccn(Cc3ccc(F)cc3)c(=O)c2c(O)c1=O [Example 318, N-[2-(4-fluorobenzyl)-9-hydroxy-1,8-dioxo-1,8-dihydro-2H-pyrido[1,2-a]pyrazin-7-yl]-2-methoxyacetamide]	10 to 100 nM
CC(C)S(=O)(=O)Nc1cn2ccn(Cc3ccc(F)cc3)c(=O)c2c(O)c1=O [Example 319, N-[2-(4-fluorobenzyl)-9-hydroxy-1,8-dioxo-1,8-dihydro-2H-pyrido[1,2-a]pyrazin-7-yl]-2-propanesulfonamide]	10 to 100 nM
O=C(Nc1cn2ccn(Cc3ccc(F)cc3)c(=O)c2c(O)c1=O)c1cccnc1 [Example 320, N-[2-(4-fluorobenzyl)-9-hydroxy-1,8-dioxo-1,8-dihydro-2H-pyrido[1,2-a]pyrazin-7-yl]nicotinamide trifluoroacetate]	< 10 nM
CC(C)C(=O)Nc1cn2ccn(Cc3ccc(F)cc3)c(=O)c2c(O)c1=O [Example 321, N-[2-(4-fluorobenzyl)-9-hydroxy-1,8-dioxo-1,8-dihydro-2H-pyrido[1,2-a]pyrazin-7-yl]isobutyramide]	10 to 100 nM
COCCNC(=O)c1cn2ccn(Cc3ccc(F)cc3)c(=O)c2c(O)c1=O [Example 322, N-(2-methoxyethyl)-2-(4-fluorobenzyl)-9-hydroxy-1,8-dioxo-1,8-dihydro-2H-pyrido[1,2-a]pyrazine-7-carboxamide]	10 to 100 nM
CCNC(=O)c1cn2ccn(Cc3ccc(F)cc3)c(=O)c2c(O)c1=O [Example 323, N-ethyl-2-(4-fluorobenzyl)-9-hydroxy-1,8-dioxo-1,8-dihydro-2H-pyrido[1,2-a]pyrazine-7-carboxamide]	10 to 100 nM
CC(=O)Nc1cn2ccn(CCCc3c(F)cccc3Cl)c(=O)c2c(O)c1=O [Example 324, N-{2-[3-(2-chloro-6-fluorophenyl)propyl]-9-hydroxy-1,8-dioxo-1,8-dihydro-2H-pyrido[1,2-a]pyrazin-7-yl]acetamide]	10 to 100 nM
CC(=O)Nc1cn2ccn(Cc3cccc(Cl)c3F)c(=O)c2c(O)c1=O [Example 325, N-[2-(3-chloro-2-fluorobenzyl)-9-hydroxy-1,8-dioxo-1,8-dihydro-2H-pyrido[1,2-a]pyrazin-7-yl]acetamide hydrochloride]	10 to 100 nM
COC(=O)c1cc(F)ccc1CN1CCn2cc(-c3nccs3)c(=O)c(O)c2C1=O [Example 326, methyl 5-fluoro-2-[9-hydroxy-1,8-dioxo-7-(thiazol-2-yl)-1,3,4,8-tetrahydro-pyrido[1,2-a]pyrazin-2-ylmethyl]benzoate]	100 to 1000 nM

Source: US7211572B2 (Japan Tobacco Inc., priority 2003, dated 2007)
